Values of other authors in patent US20090197952A1, “Glyceride Esters for the Treatment of Diseases Associated with Reduced Neuronal Metabolism of Glucose” (priority 2006, published 2009).

Tests used:
rats [1] = details: infusion
rat = rat feeding studies
mice = details: direct administration
patients = details: infused at 8-9.3 g/Kg body weight/day to affect hyperketonemia
rats [2] = details: rat, in vivo

In the case of `CC(=O)CC(=O)OCC(O)CO` (stereo not drawn) [monoacetoacetin], the detrimental side effects (rats [1]; elevated levels of ketone bodies achieved) is listed as “without any detrimental side effects” and the “rate at which it could be safely infused” value (rats [1]; level equivalent to 2/3 of the rat's daily caloric requirement) is listed as “at least 50 g/kg body weight/day”.
For `CC(O)CC(=O)OCC(COC(=O)CC(C)O)OC(=O)CC(C)O` (racemic) [DL-tris-(3-hydroxybutyrl)-glycerol], the acute toxicity (rat) is given as “not acutely toxic” and the chronic toxicity (rat) is given as “did not show any indication of chronic toxicity”.
In the case of `CC(O)CC(=O)O` (stereo not drawn) [3-hydroxybutyrate], the protection against neurotoxin (mice) is listed as “can protect mice against a neurotoxin”.
For bisacetoacetin, the detrimental side effects (patients) is listed as “No detrimental side effects”.
For `CC(O)CC(=O)OCC(O)CO` (racemic) [1-(DL-3-hydroxybutyryl)-glycerol], the acute toxicity (rat) is given as “not acutely toxic” and the chronic toxicity (rat) is given as “did not show any indication of chronic toxicity”.
For `CC(=O)CC(=O)OCC(COC(=O)CC(C)=O)OC(=O)CC(C)=O` [triacetoacetin], the tolerated amount (rats [2]) is listed as 10 g/Kg body weight/day.
